Results published in the NIST ThermoML archive (doi:10.1007/s10765-011-1128-2).

Details: Crystal

O [water]
Details | vapor or sublimation pressure [kPa]
223.15 K | 0.003925
228.15 K | 0.007147
233.15 K | 0.01277
238.14 K | 0.02221
243.16 K | 0.03791
248.16 K | 0.06315
253.14 K | 0.103
258.15 K | 0.165
263.15 K | 0.2596
268.15 K | 0.4016
273.16 K | 0.6117
